Read-outs that look alike come from different tables or passages of the source.
Target: T1, human GR (Homo sapiens, UniProt P04150)
T1 sequence (P04150 1-777): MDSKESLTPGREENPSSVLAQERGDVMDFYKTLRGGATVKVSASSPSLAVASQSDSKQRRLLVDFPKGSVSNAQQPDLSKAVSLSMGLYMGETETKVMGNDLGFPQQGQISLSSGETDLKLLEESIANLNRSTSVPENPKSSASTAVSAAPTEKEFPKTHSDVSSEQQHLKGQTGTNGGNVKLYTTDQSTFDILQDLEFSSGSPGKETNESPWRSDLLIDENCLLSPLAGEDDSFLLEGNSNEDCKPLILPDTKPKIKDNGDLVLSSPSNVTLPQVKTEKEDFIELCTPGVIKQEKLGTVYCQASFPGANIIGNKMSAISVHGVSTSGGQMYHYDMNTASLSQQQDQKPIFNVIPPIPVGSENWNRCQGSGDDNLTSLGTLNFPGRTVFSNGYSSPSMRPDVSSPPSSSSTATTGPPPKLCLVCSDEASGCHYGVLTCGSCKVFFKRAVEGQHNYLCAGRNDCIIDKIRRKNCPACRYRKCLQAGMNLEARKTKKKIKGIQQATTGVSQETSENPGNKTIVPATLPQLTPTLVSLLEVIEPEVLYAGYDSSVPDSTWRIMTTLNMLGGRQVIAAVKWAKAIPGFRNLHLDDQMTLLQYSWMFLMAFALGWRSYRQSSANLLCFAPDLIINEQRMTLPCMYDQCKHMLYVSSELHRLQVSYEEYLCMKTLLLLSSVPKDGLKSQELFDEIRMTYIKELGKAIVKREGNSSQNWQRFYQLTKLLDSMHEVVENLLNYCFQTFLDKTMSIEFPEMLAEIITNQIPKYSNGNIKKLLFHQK
Assay: Trans-Activation Modulation of Glucocorticoid Receptor (GRAMMER), MMTV-LUC reporter gene
Type: cell-based
Set-up: endogenous in cells
Conditions: for Emax: A549; for EC50: A549 cells, IP = inflection point
From the text: Trans-Activation Modulation of Glucocorticoid Receptor (GRAMMER)
This assay assesses the ability of test compounds to control transcription from the MMTV-LUC reporter gene in lung adenocarcinoma A549 cells or HeLa cells, a human […] cell line that naturally expresses the human GR. The assay measures induction of a modified MMTV LTR/promoter linked to the LUC reporter gene.
The routine transient assay consists of plating 7,000-25,000 cells/well of a white, clear-bottom 96-well plate. Alternatively, 384-well plates can be used at a cell concentration of 10,000/well. The media that the cells are plated in is “exponential growth medium” which consists of phenol red-free RPMI1640 containing 10% FBS, 4 mM L-glutamine, 20 mM HEPES, 10 ug/mL human insulin, and 20 ug/mL gentamicin. Incubator conditions are 37° C. and 5% CO2. The transfection is done in batch mode. The cells are trypsinized and counted to the right cell number in the proper amount of fresh media. It is then gently mixed with the FuGene6/DNA mix and plated onto the 96 or 384-well plate, all the wells receive 100 uL or 40 uL, respectively, of medium+lipid/DNA complex then incubated 37° C. overnight. The transfection cocktail consists of serum-free OptiMEM, FuGene6 reagent and DNA. The manufacturer's (Roche Biochemical) protocol for cocktail setup is as follows: The lipid to DNA ratio is approximately 2.5:1 and the incubation time is 20 min at room temperature. Sixteen to 24 hours after transfection, the cells are treated with dexamethasone to a final concentration of 10 nM as well as the compound of interest, such that final DMSO (vehicle) concentration is equal to or less than 1%. Each plate also contains samples that are treated with 10 nM dexamethasone alone, which is used as the 100% activity control. The cells are exposed to the compounds for 24 hours. After 24 hours, the cells are lysed by a Promega cell culture lysis buffer for approximately 30 min and then the luciferase activity in the extracts is assayed in the 96-well format luminometer. In 384-well format, Steady-Glo (Promega) or Steady-Lite (PerkinElmer) can be used by adding an equal volume of reagent to the media present in each well. Activity induced by 10 nM dexamethasone alone is set at 100% activity. Antagonist activity is calculated by determining the decrease in dexamethasone-induced activity in response to compound treatment relative to samples that were treated with dexamethasone alone. […] This transactivation assay can be performed in an agonist and antagonist mode to identify these different activities. […]

[1] = read-out: Transactivation A549 Cells GRAMMER Emax (%)
[2] = Table 1, read-out: Transactivation A549 Cells GRAMMER IP
[3] = read-out: Transactiviation A549 Cells GRAMMER Emax (%)
[4] = Table 2, read-out: Transactiviation A549 Cells GRAMMER IP

Emax [1] | EC50 [2] | Emax [3] | EC50 [4] | SMILES
24% | 95 nM |  |  | CC(C)CNC(=O)c1ccccc1CC[C@]1(O)CCC2=Cc3c(cnn3-c3ccc(F)cc3)C[C@@]21C [Example 29, 2-{2-[(4αS,5R)-1-(4-fluorophenyl)-5-hydroxy-4α-methyl-1,4,4α,5,6,7-hexahydrocyclopenta[f]indazol-5-yl]ethyl}-N-isobutylbenzamide]
29% | 187 nM |  |  | C[C@]12Cc3cnn(-c4ccc(F)cc4)c3C=C1CC[C@@]2(O)CCc1ccccc1C(F)C(N)=O (single isomer, unassigned) [Example 198]
41% | 162 nM |  |  | C[C@]12Cc3cnn(-c4ccc(F)c(F)c4)c3C=C1CC[C@@]2(O)CCc1ccccc1C(N)=O [Example 172, 2-{2-[(4αS,5R)-1-(3,4-difluorophenyl)-5-hydroxy-4α-methyl-1,4,4α,5,6,7-hexahydrocyclopenta[f]indazol-5-yl]ethyl}benzamide]
49% | 55 nM |  |  | Cc1cccc(CC[C@]2(O)CCC3=Cc4c(cnn4-c4cccc(F)c4)C[C@@]32C)c1C(N)=O [Example 191, 2-{2-[(4αS,5R)-1-(3-fluorophenyl)-5-hydroxy-4α-methyl-1,4,4α,5,6,7-hexahydrocyclopenta[f]indazol-5-yl]ethyl}-6-methylbenzamide]
47% | 278 nM |  |  | C[C@]12Cc3cnn(-c4ccc(F)cc4)c3C=C1CC[C@@]2(O)CCc1ccccc1C(=O)N1CC(=O)C1 [Example 156, 1-(2-{2-[(4αS,5R)-1-(4-fluorophenyl)-5-hydroxy-4α-methyl-1,4,4α,5,6,7-hexahydrocyclopenta[f]indazol-5-yl]ethyl}benzoyl)azetidin-3-one]
45% | 21 nM |  |  | COC(=O)C(C)(C)NC(=O)c1ccccc1CC[C@]1(O)CCC2=Cc3c(cnn3-c3ccc(F)cc3)C[C@@]21C [Example 52, methyl N-(2-{2-[(4αS,5R)-1-(4-fluorophenyl)-5-hydroxy-4α-methyl-1,4,4α,5,6,7-hexahydrocyclopenta[f]indazol-5-yl]ethyl}benzoyl)-2-methylalaninate]
40% | 47 nM |  |  | CC(C)C(O)(C(N)=O)c1ccccc1CC[C@]1(O)CCC2=Cc3c(cnn3-c3ccc(F)cc3)C[C@@]21C (stereo partly drawn) [Example 201, 2-(2-{2-[(4αS,5R)-1-(4-fluorophenyl)-5-hydroxy-4α-methyl-1,4,4α,5,6,7-hexahydrocyclopenta[f]indazol-5-yl]ethyl}phenyl)-2-hydroxy-3-methylbutanamide]
48% | 60 nM |  |  | CC(C)NC(=O)c1ccccc1CC[C@]1(O)CCC2=Cc3c(cnn3-c3ccc(F)cc3)C[C@@]21C [Example 35, 2-{2-[(4αS,5R)-1-(4-fluorophenyl)-5-hydroxy-4α-methyl-1,4,4α,5,6,7-hexahydrocyclopenta[f]indazol-5-yl]ethyl}-N-isopropylbenzamide]
59% | 196 nM |  |  | C[C@]12Cc3cnn(-c4ccc(F)cc4)c3C=C1CC[C@@]2(O)CCc1ccccc1C(=O)N1CCCC1 [Example 47, (4αS,5R)-1-(4-fluorophenyl)-4α-methyl-5-{2-[2-(pyrrolidin-1-ylcarbonyl)phenyl]ethyl}-1,4,4α,5,6,7-hexahydrocyclopenta[f]indazol-5-ol]
 |  | 85% | 109 nM | C[C@]12Cc3cnn(-c4ccc(F)cc4)c3C=C1CCC[C@@H]2[C@@H](O)Cc1ccccc1 [Example 22 WO 03/086294 A2, reference compound]
20% | 43 nM |  |  | CN(C)S(=O)(=O)NCc1c(F)cccc1CC[C@]1(O)CCC2=Cc3c(cnn3-c3ccc(F)cc3)C[C@@]21C [Example 89, N′-(2-fluoro-6-{2-[(4αS,5R)-1-(4-fluorophenyl)-5-hydroxy-4α-methyl-1,4,4α,5,6,7-hexahydrocyclopenta[f]indazol-5-yl]ethyl}benzyl)-N,N-dimethylsulfamide]
43% | 236 nM |  |  | C[C@]12Cc3cnn(-c4ccc(F)cc4)c3C=C1CC[C@@]2(O)CCc1ccccc1NS(=O)(=O)C1CC1 [Example 15, N-(2-{2-[(4αS,5R)-1-(4-fluorophenyl)-5-hydroxy-4α-methyl-1,4,4α,5,6,7-hexahydrocyclopenta[f]indazol-5-yl]ethyl}phenyl)cyclopropanesulfonamide]
58% | 53 nM |  |  | C[C@]12Cc3cnn(-c4ccc(F)c(F)c4)c3C=C1CC[C@@]2(O)CCc1cccc(F)c1C(N)=O [Example 168, 2-{2-[(4α,5R)-1-(3,4-difluorophenyl)-5-hydroxy-4α-methyl-1,4,4α,5,6,7-hexahydrocyclopenta[f]indazol-5-yl]ethyl}-6-fluorobenzamide]
13% | 94 nM |  |  | CC(C)[C@@H](C)NC(=O)c1c(F)cccc1CC[C@]1(O)CCC2=Cc3c(cnn3-c3ccc(F)cc3)C[C@@]21C [Example 48, N-[(1R)-1,2-dimethylpropyl]-2-fluoro-6-{2-[(4αS,5R)-1-(4-fluorophenyl)-5-hydroxy-4α-methyl-1,4,4α,5,6,7-hexahydrocyclopenta[f]indazol-5-yl]ethyl}benzamide]
40% | 268 nM |  |  | C[C@]12Cc3cnn(-c4ccc(F)cc4)c3C=C1CC[C@@]2(O)CCc1ccccc1S(=O)(=O)C1CC1 [Example 144, (4αS,5R)-5-{2-[2-(cyclopropylsulfonyl)phenyl]ethyl}-1-(4-fluorophenyl)-4α-methyl-1,4,4α,5,6,7-hexahydrocyclopenta[f]indazol-5-ol]
28% | 48 nM |  |  | CC1(NC(=O)c2ccccc2CC[C@]2(O)CCC3=Cc4c(cnn4-c4ccc(F)cc4)C[C@@]32C)CC1 [Example 28, 2-{2-[(4αS,5R)-1-(4-fluorophenyl)-5-hydroxy-4α-methyl-1,4,4α,5,6,7-hexahydrocyclopenta[f]indazol-5-yl]ethyl}-N-(1-methylcyclopropyl)benzamide]
21% | 70 nM |  |  | CC(C)S(=O)(=O)NCc1c(F)cccc1CC[C@]1(O)CCC2=Cc3c(cnn3-c3ccc(F)cc3)C[C@@]21C [Example 83, N-(2-fluoro-6-{2-[(4αS,5R)-1-(4-fluorophenyl)-5-hydroxy-4α-methyl-1,4,4α,5,6,7-hexahydrocyclopenta[f]indazol-5-yl]ethyl}benzyl)propane-2-sulfonamide]
 |  | 92% | 123 nM | C[C@]12Cc3cnn(-c4ccc(F)cc4)c3C=C1CCC[C@@]2(O)CCc1ccccc1Cl [Example 41 WO 2004/075840 A2, reference compound]
18% | 46 nM |  |  | COC(=O)C(C)(C)NC(=O)c1c(F)cccc1CC[C@]1(O)CCC2=Cc3c(cnn3-c3ccc(F)cc3)C[C@@]21C [Example 41, methyl N-(2-fluoro-6-{2-[(4αS,5R)-1-(4-fluorophenyl)-5-hydroxy-4α-methyl-1,4,4α,5,6,7-hexahydrocyclopenta[f]indazol-5-yl]ethyl}benzoyl)-2-methylalaninate]
32% | 53 nM |  |  | C[C@]12Cc3cnn(-c4ccc(F)cc4)c3C=C1CC[C@@]2(O)CCc1cccc(F)c1CNS(=O)(=O)C1CC1 [Example 88, N-(2-fluoro-6-{2-[(4αS,5R)-1-(4-fluorophenyl)-5-hydroxy-4α-methyl-1,4,4α,5,6,7-hexahydrocyclopenta[f]indazol-5-yl]ethyl}benzyl)cyclopropanesulfonamide]

From US8119681B2, “2-[1-phenyl-5-hydroxy or methoxy-4alpha-methyl-hexahydrocyclopenta [ƒ]indazole-5-YL]ethyl phenyl derivatives as glucocorticoid receptor ligands” (Merck Sharp & Dohme Corp., priority 2006, dated 2012)
